| Compound | melting point [°C] |
| --- | --- |
| O=C(NNS(=O)(=O)c1ccccc1)c1ccc2ncccc2c1 (hydrate or solvate) [Example 13, Quinoline-6-carboxylic acid 2-(phenylsulfonyl)hydrazide] | 211 to 214 |
| O=C(NNS(=O)(=O)c1ccccc1)c1cccc2cccnc12 (hydrate or solvate) [Example 21, Quinoline-8-carboxylic acid 2-(phenylsulfonyl)hydrazide] | 173 to 175 |
| O=C(NNS(=O)(=O)c1ccccc1)c1cc2cc([N+](=O)[O-])ccc2o1 (hydrate or solvate) [Example 34, 2-Benzofurancarboxylic acid, 5-nitro-, 2-(phenylsulfonyl)hydrazide] | 207.7 to 208.1 |
| COc1cccc2cc(C(=O)NNS(=O)(=O)c3ccccc3C(F)(F)F)oc12 (hydrate or solvate) [Example 54, 2-Benzofurancarboxylic acid, 7-methoxy-, 2-[[2-(trifluoromethyl)phenyl]-sulfonyl]hydrazide] | 156.8 to 157.6 |
| COc1cccc2cc(C(=O)NNS(=O)(=O)c3cccc(C)c3)oc12 (hydrate or solvate) [Example 55, 2-Benzofurancarboxylic acid, 7-methoxy-, 2-[(3-methylphenyl)sulfonyl]hydrazide] | 170.8 to 171.8 |
| COc1ccc2cc(C(=O)NNS(=O)(=O)c3ccccc3)oc2c1 (hydrate or solvate) [Example 56, 2-Benzofurancarboxylic acid, 6-methoxy-, 2-(phenylsulfonyl)hydrazide] | 224.9 to 225.8 |
| COc1ccc2oc(C(=O)NNS(=O)(=O)c3ccccc3)c(OC(C)C)c2c1 (hydrate or solvate) [Example 57, 2-Benzofurancarboxylic acid, 5-methoxy-3-(1-methylethoxy), 2-(phenylsulfonyl)-hydrazide] | 127 to 129 |
| COc1cc(OC)c2cc(C(=O)NNS(=O)(=O)c3ccccc3)oc2c1 (hydrate or solvate) [Example 60, 2-Benzofurancarboxylic acid, 4,6-dimethoxy-, 2-(phenylsulfonyl)hydrazide] | 230.6 to 231 |
| COc1c(C(=O)NNS(=O)(=O)c2ccccc2)oc2c(OC)cccc12 (hydrate or solvate) [Example 61, 2-Benzofurancarboxylic acid, 3,7-dimethoxy-, 2-(phenylsulfonyl)hydrazide] | 177.9 to 179.6 |

Further lines, results first:

| melting point [°C] | Compound |
| --- | --- |
| 190.6 to 192.3 | COc1c(C(=O)NNS(=O)(=O)c2ccccc2C(F)(F)F)oc2c(OC)cccc12 (hydrate or solvate) [Example 62, 2-Benzofurancarboxylic acid, 3,7-dimethoxy-, 2-[(2-trifluoromethylphenyl)-sulfonyl]hydrazide] |
| 190.9 to 191.1 | COc1c(C(=O)NNS(=O)(=O)c2ccc(F)cc2)oc2c(OC)cccc12 (hydrate or solvate) [Example 63, 2-Benzofurancarboxylic acid, 3,7-dimethoxy-, 2-[(4-fluorophenyl)sulfonyl]-hydrazide] |
| 179.4 to 180.9 | COc1c(C(=O)NNS(=O)(=O)c2cccc(C)c2)oc2c(OC)cccc12 (hydrate or solvate) [Example 64, 2-Benzofurancarboxylic acid, 3,7-dimethoxy-, 2-[(3-methylphenyl)sulfonyl]-hydrazide] |
| 180.7 to 181.3 | COc1c(C(=O)NNS(=O)(=O)c2ccccc2)oc2ccc(-c3ccccc3)cc12 (hydrate or solvate) [Example 65, 2-Benzofurancarboxylic acid, 3-methoxy-5-phenyl-, 2-(phenylsulfonyl)hydrazide] |
| 186.7 to 187.3 | COc1c(C(=O)NNS(=O)(=O)c2ccccc2)oc2c(-c3ccccc3)cccc12 (hydrate or solvate) [Example 67, 2-Benzofurancarboxylic acid, 3-methoxy-7-phenyl-, 2-(phenylsulfonyl)hydrazide] |
